Laboratory results reported in patent US10174036B2, “Substituted pyrazoles as JAK inhibitors” (WUXI FORTUNE PHARMACEUTICAL CO., LTD, priority 2015, dated 2019).
Read-outs that look alike come from different tables or passages of the source.

What was measured:
Assay type in all cases: biochemical
JAK2 = biological target: T1, JAK2 (Homo sapiens, UniProt O60674); experiment: Test for in vitro activity of JAK2 kinase (LANCE Ultra ULight-JAK-1 peptide)
T1 construct: purchased Life technology
Protocol: (§1) Test for In Vitro Activity of Jak1, Jak2, and Jak3 Kinase
(§2) Recombinant human […] of JAK1, JAK2 and JAK3 were purchased from Life technology. LANCE Ultra ULight™-JAK-1 (Tyr1023) peptide and LANCE Eu-W1024 Anti-phosphotyrosine (PT66) were purchased from PerkinElmer. Multimode ELISA, Envison(PerkinElmer) reader was used.
The reaction was carried out at room temperature for 60 min and the reaction system was 10 ul.
(§3) Determination for Reaction
(§4) 10 ul detection reagent was added to reaction plate, wherein the final concentration of LANCE Eu-W1024 Anti-phosphotyrosine (PT66) was 2 nM, the final concentration of EDTA was […], incubated at room temperature for 60 min, with Envison reader.
(§5) The reading was converted to inhibition ratio (%) by the following formula: the inhibition ratio (%)=([…])/(Max−Min)×100%.

JAK1 = biological target: T2, JAK1 (Homo sapiens, UniProt P23458); experiment: Test for in vitro activity of JAK1 kinase (LANCE Ultra ULight-JAK-1 peptide); conditions: selectivity ratio JAK1 versus JAK2; class symbol
T2 construct: purchased Life technology
Protocol: as §1, §2
The reaction was carried out at room temperature for 90 min and the reaction system was 10 ul.
as §3, §4, §5

JAK3 = biological target: T3, JAK3 (Homo sapiens, UniProt P52333); experiment: Test for in vitro activity of JAK3 kinase (LANCE Ultra ULight-JAK-1 peptide)
T3 construct: purchased Life technology
T3 sequence (P52333 1-1124): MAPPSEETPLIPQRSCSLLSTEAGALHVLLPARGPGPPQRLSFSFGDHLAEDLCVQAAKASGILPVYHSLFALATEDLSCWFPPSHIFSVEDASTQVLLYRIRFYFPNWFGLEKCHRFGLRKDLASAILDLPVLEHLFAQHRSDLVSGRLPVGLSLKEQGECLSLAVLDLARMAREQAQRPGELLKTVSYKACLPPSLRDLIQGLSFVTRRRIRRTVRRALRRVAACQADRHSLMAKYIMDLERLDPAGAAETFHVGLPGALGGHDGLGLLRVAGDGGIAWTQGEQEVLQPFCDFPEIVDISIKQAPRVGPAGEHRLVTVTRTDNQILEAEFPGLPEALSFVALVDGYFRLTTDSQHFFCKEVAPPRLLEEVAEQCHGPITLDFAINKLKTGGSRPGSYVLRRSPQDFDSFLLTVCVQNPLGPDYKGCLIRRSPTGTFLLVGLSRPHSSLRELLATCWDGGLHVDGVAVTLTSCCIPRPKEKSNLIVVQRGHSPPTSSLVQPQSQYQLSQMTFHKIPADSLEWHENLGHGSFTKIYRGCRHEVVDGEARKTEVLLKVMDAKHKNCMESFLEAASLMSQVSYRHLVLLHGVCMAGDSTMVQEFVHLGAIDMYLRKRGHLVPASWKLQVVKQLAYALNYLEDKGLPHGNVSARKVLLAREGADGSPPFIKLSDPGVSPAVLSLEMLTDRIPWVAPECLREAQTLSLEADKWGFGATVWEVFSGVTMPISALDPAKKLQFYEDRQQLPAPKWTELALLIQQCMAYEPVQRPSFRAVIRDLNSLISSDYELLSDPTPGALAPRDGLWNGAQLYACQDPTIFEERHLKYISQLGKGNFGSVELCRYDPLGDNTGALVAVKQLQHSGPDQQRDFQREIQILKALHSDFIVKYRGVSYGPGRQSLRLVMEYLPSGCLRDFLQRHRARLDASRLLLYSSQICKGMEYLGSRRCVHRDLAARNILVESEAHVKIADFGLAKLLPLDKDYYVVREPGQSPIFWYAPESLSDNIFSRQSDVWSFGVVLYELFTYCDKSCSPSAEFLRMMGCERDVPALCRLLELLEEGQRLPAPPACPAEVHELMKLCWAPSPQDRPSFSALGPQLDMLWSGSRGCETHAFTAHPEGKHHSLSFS
Protocol: as §1, §2
0.05 nM of JAK3 Protein kinase, 50 nM of LANCE Ultra ULight™-JAK-1(Tyr1023) peptide, 4 uM of ATP, 50 mM of HEPES (pH 7.5), 10 mM of MgCl2, 1 mM of EGTA, 2 mM of DTT, 0.01% BRIJ-35. […] The reaction was carried out at room temperature for 90 min and the reaction system was 10 ul.
as §3, §4, §5

[1] = recombinant human JAK2, 12 uM ATP, 60 min, class symbol
[2] = selectivity ratio JAK3 versus JAK2, class symbol

T1 sequence (O60674 whole entry): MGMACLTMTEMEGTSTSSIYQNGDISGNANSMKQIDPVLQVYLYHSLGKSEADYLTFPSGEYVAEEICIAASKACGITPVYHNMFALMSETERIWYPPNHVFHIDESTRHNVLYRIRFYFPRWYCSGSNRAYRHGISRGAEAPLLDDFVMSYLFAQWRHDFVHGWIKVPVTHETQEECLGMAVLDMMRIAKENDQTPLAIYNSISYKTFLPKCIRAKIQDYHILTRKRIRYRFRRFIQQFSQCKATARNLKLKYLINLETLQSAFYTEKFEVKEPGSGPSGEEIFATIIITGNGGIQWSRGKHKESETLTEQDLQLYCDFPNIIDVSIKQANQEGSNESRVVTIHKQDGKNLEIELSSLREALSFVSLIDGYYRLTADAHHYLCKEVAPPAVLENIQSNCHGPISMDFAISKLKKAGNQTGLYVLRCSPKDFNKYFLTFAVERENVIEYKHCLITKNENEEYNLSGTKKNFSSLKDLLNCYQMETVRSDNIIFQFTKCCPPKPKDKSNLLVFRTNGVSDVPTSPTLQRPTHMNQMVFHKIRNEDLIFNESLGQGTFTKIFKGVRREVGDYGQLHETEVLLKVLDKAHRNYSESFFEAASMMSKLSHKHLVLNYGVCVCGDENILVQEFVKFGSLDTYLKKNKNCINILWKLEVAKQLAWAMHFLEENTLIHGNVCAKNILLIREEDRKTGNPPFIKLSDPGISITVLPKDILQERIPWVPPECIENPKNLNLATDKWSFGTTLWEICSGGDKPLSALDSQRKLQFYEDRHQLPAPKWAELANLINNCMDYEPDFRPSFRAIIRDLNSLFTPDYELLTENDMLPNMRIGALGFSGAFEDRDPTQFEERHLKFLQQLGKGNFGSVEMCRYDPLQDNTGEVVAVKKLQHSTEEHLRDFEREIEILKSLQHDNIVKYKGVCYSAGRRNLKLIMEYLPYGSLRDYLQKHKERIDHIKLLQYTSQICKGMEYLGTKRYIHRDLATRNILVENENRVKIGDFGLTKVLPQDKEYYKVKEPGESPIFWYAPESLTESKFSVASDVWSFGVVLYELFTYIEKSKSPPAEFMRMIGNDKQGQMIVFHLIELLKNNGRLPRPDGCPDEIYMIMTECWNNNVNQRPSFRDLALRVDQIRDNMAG
T2 sequence (P23458 whole entry): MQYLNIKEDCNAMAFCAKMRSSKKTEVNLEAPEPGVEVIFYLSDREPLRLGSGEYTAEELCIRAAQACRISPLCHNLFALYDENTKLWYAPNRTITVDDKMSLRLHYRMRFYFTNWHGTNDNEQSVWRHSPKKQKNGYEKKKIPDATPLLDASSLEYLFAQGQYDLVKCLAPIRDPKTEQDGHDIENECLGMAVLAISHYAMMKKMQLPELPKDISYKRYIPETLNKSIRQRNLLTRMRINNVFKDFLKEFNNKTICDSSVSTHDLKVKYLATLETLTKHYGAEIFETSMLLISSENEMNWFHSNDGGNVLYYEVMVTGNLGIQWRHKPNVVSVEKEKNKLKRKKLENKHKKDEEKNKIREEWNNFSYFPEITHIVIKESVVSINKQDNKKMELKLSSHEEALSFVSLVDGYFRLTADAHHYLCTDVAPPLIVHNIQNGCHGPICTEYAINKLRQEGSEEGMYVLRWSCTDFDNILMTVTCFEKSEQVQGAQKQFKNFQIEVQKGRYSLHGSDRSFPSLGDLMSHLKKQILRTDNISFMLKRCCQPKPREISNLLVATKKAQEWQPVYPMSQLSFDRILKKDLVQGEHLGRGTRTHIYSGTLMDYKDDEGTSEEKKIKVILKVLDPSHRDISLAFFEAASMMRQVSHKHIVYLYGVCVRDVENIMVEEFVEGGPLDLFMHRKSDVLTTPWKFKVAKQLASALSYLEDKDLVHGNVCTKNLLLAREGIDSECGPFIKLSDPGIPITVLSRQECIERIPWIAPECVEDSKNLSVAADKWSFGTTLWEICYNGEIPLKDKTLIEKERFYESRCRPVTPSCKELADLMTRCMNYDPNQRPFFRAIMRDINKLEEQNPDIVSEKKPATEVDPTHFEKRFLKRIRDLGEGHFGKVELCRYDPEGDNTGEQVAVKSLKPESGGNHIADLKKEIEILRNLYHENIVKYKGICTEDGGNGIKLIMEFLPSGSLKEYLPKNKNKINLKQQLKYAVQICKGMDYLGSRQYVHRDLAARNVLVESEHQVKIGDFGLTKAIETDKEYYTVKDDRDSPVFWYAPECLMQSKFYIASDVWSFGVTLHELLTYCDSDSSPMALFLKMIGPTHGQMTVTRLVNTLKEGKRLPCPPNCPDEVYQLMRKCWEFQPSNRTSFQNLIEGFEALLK

| SMILES | IC50 (JAK2; [1]) [nM] | JAK1/JAK2 (times) (JAK1) | JAK3/JAK2 (times) (JAK3; [2]) | IC50 (JAK2) [nM] | JAK3/JAK2 (times) (JAK3) |
| --- | --- | --- | --- | --- | --- |
| N#CCC1(n2cc(-c3cccc4nc(NC(=O)C5CC5)nn34)cn2)CN(S(=O)(=O)C(F)(F)F)C1 [WX09, N-(5-(1-(3-(cyanomethyl)-1-(trifluoromethylsulfonyl)azetidine-3-yl)-1H-pyrazole-4-yl)-[1,2,4]triazolo[1,5-a]pyridin-2-yl)cyclopropane formamide] | < 10 | F1 (1 ≤ F1 ≤ 5) | F4 (25 < F4 ≤ 100) |  |  |
| COCC(=O)N1CC(CC#N)(n2cc(-c3nccc4nc(NC(=O)C5CC5)nn34)cn2)C1 [WX10, N-[5-[1-[3-(cyanomethyl)-1-(2-methoxyacetyl)azetidine-3-]pyrazole-4-]-[1,2,4]triazoloe[1,5-c]pyrimidine2-] cyclopropane carboxamide] | 100 to 1000 | F1 (1 ≤ F1 ≤ 5) | F1 (1 ≤ F1 ≤ 5) |  |  |
| N#CCC1(n2cc(-c3nccc4nc(NC(=O)C5CC5)nn34)cn2)CN(C(=O)C2CC2)C1 [WX11, N-[5-[1-[3-(cyanomethyl)-1-(cyclopropylcarbonyl)azetidine-3-]pyrazole-4-]-[1,2,4]triazoloe[1,5-c]pyrimidine2-] cyclopropane carboxamide] | 100 to 1000 | F2 (5 < F2 ≤ 10) | F3 (10 < F3 ≤ 25) |  |  |
| CS(=O)(=O)N1CC(CC#N)(n2cc(-c3nccc4nc(NC(=O)C5CC5)nn34)cn2)C1 [WX12, N-[5-[1-[3-(cyanomethyl)-1-methanesulfonyl-azetidine-3-]pyrazole-4-]-[1,2,4]triazoloe[1,5-c]pyrimidine2-] cyclopropane carboxamide] | 10 to 100 | F2 (5 < F2 ≤ 10) | F3 (10 < F3 ≤ 25) |  |  |
| N#CCC1(n2cc(-c3nccc4nc(NC(=O)C5CC5)nn34)cn2)CN(S(=O)(=O)C(F)F)C1 [WX13, N-[5-[1-[3-(cyanomethyl)-1-(difluoromethylsulfonyl)-azetidine-3-]pyrazole-4-]-[1,2,4]triazoloe[1,5-c]pyrimidine2-]cyclopropane carboxamide] | < 10 | F3 (10 < F3 ≤ 25) | F4 (25 < F4 ≤ 100) |  |  |
| N#CCC1(n2cc(-c3cccc4nc(NC(=O)C5CC5)nn34)cn2)CN(S(=O)(=O)C(F)F)C1 [WX14, N-[5-[1-[3-(cyanomethyl)-1-(difluoromethylsulfonyl)azetidine-3-]pyrazole-4-]-[1,2,4]triazolo[1,5-c]pyridin-2-]cyclopropyl carboxamide] | < 10 | F2 (5 < F2 ≤ 10) | F4 (25 < F4 ≤ 100) |  |  |
| CS(=O)(=O)N1CC(CC#N)(n2cc(-c3cccc4nc(NC(=O)C5CC5)nn34)cn2)C1 [WX15] | < 10 | F1 (1 ≤ F1 ≤ 5) | F4 (25 < F4 ≤ 100) |  |  |
| CCS(=O)(=O)N1CC(CC#N)(n2cc(-c3cccc4nc(NC(=O)C5CC5)nn34)cn2)C1 [WX16, N-(5-(1-(3-(cyanomethyl)-1-(ethylsulfony)azetidine-3-yl)-1H-pyrazole-4-yl]-[1,2,4]triazolo[1,5-a]pyridin-2-yl)cyclopropyl carboxamide] | < 10 | F1 (1 ≤ F1 ≤ 5) | F3 (10 < F3 ≤ 25) |  |  |
| N#CCC1(n2cc(-c3cccc4ncnn34)cn2)CN(S(=O)(=O)C(F)(F)F)C1 [WX17, 2-[3-[4-([1,2,4]triazolo[1,5-a]pyridin-5-)pyrazole-1-]-1-(trifluoromethylsulfonyl)azetidine-3-]acetonitrile] | 10 to 100 | F1 (1 ≤ F1 ≤ 5) | F3 (10 < F3 ≤ 25) |  |  |
| N#CCC1(n2cc(-c3cccc4nc(N)nn34)cn2)CN(S(=O)(=O)C(F)(F)F)C1 [WX18] | < 10 | F1 (1 ≤ F1 ≤ 5) | F3 (10 < F3 ≤ 25) |  |  |
| CS(=O)(=O)N1CC(CC#N)(n2cc(-c3cccc4nc(N)nn34)cn2)C1 [WX19, 2-(3-(4-(2-amino-[1,2,4]triazolo[1,5-a]pyridinyl)-1H-pyrazolyl)-1-(methylsulfonyl)cyclobutane)acetonitrile] | 10 to 100 | F1 (1 ≤ F1 ≤ 5) | F3 (10 < F3 ≤ 25) |  |  |
| CCS(=O)(=O)N1CC(CC#N)(n2cc(-c3cccn4nc(NC(=O)C5CC5)nc34)cn2)C1 [WX20, N-(8-(1-(3-(cyanomethyl)-1-(ethylsulfonyl)azetidine-3-yl)-1H-pyrazole-4-yl)-[1,2,4]triazolo[1,5-a]pyridin-2-yl) cyclopropanecarboxamide] | < 10 | F1 (1 ≤ F1 ≤ 5) | F4 (25 < F4 ≤ 100) |  |  |
| CCS(=O)(=O)N1CC(CC#N)(n2cc(-c3cccn4nc(NC(=O)C(F)(F)F)nc34)cn2)C1 [WX22, N-(8-(1-(3-(cyanomethyl)-1-(ethylsulfonyl)azetidine-3-yl)-1H-pyrazole-4-yl)-[1,2,4]triazolo[1,5-a]pyridin-2-yl)-2,2,2-trifluoroacetamide] | 100 to 1000 | F1 (1 ≤ F1 ≤ 5) | F3 (10 < F3 ≤ 25) |  |  |
| N#CCC1(n2cc(-c3cccn4nc(NC(=O)C(F)(F)F)nc34)cn2)CN(S(=O)(=O)C2CC2)C1 [WX23] | 100 to 1000 | F1 (1 ≤ F1 ≤ 5) | F3 (10 < F3 ≤ 25) |  |  |
| COCC(=O)Nc1nc2ccnc(-c3cnn(C4(CC#N)CN(S(=O)(=O)C(F)(F)F)C4)c3)n2n1 [WX24, N-(5-(1-(3-(cyanomethyl)-1-((trifluoromethyl)sulfonyl)azetidine-3-yl)-1H-pyrazole-4-yl)-[1,2,4]triazolo[1,5-c]pyridin-2-yl)-2-methoxyacetamide] | 10 to 100 | F3 (10 < F3 ≤ 25) | F4 (25 < F4 ≤ 100) |  |  |
| CS(=O)(=O)N1CC(CC#N)(n2cc(-c3nccc4nc(NC(=O)CC#N)nn34)cn2)C1 [WX26] | 100 to 1000 | F3 (10 < F3 ≤ 25) | F3 (10 < F3 ≤ 25) |  |  |
| CS(=O)(=O)N1CC(CC#N)(n2cc(-c3cccc4nc(N)sc34)cn2)C1 [WX27, 2-(3-(4-(2-aminobenzo[d]thiazole-7-yl)-1H-pyrazole-1-yl)-(methylsulfonyl)azetidine-3-yl) methyl cyanide] |  | F3 (10 < F3 ≤ 25) |  | < 10 | F2 (key: 1 ≤ F1 ≤ 5; 5 < F2 ≤ 10; 10 < F3 ≤ 25; 25 < F4 ≤ 100) |
| CS(=O)(=O)N1CC(CC#N)(n2cc(-c3cccc4nc(NC(=O)C5CC5)sc34)cn2)C1 [WX28, N-(7-(1-(3-(cyanomethyl)-1-(methylsulfonyl)azetidin-3-yl)-1H-pyrazole-4-yl)benzo[d]thiazole-2-yl) cyclopropanecarboxamide] | < 10 | F3 (10 < F3 ≤ 25) | F4 (25 < F4 ≤ 100) |  |  |
| CS(=O)(=O)N1CC(CC#N)(n2cc(-c3cccc4nc(N)oc34)cn2)C1 [WX29, 2-(3-(4-(2-aminobenzo[d]oxazole-7-yl)-1H-pyrazole-1-yl)-1-(methylsulfonyl)azetidin-3-yl)acetonitrile] | < 10 | F3 (10 < F3 ≤ 25) | F4 (25 < F4 ≤ 100) |  |  |
| CS(=O)(=O)N1CC(CC#N)(n2cc(-c3cccc4nc(NC(=O)C5CC5)oc34)cn2)C1 [WX30, N-(7-(1-(3-(cyanomethyl)-1-(methylsulfonyl)azetidin-3-yl)-1H-pyrazole-4-yl)benzo[d]oxazole-2-yl) cyclopropanecarboxamide] | < 10 | F2 (5 < F2 ≤ 10) | F4 (25 < F4 ≤ 100) |  |  |
